Test results as given in US20230331803A1, “CO-AGONISTS OF THE GLP-1 AND AMYLIN RECEPTORS” (priority 2020, published 2023).
Read-outs that look alike come from different tables or passages of the source. Starred links: 1 amine or outer side, 2 acyl side, 3 side chain; linkers in the order of their positions; H or OH if unused. Non-standard residues stand in square brackets, D forms with d. Groups on a side chain read outwards from the residue. *: point of attachment. Decanoyl(10-O(3-COOH-Ph)) = O=C(O)c1cccc(OCCCCCCCCCC(=O)*)c1; C20 diacid = O=C(O)CCCCCCCCCCCCCCCCCCC(=O)*; C16 diacid = O=C(O)CCCCCCCCCCCCCCC(=O)*; γGlu = O=C(O)[C@H](CCC(=O)[*:2])N[*:1]; Desaminohistidyl = O=C(CCc1c[nH]cn1)*; εLys = N[C@@H](CCCCN[*:1])C(=O)[*:2]; Trx = NC[C@H]1CC[C@H](C(=O)O)CC1; AEEA = NCCOCCOCC(=O)O; Aib = CC(C)(N)C(=O)O; Ahx = NCCCCCC(=O)O

Key:
[1] = target: T1, human GLP-1 receptor (Homo sapiens, UniProt P43220); test: Human GLP-1 receptor in vitro potency assay (CRE-luciferase reporter, BHK cells); assay type: cell-based; conditions: Table 4a; BHK cells expressing human GLP-1R, CRE-Luc, 3 hours; read-out: Human GLP-1R potency [EC50 (pM)]
T1 construct: expressed in transfected cells; host or cells: BHK (Baby Hamster Kidney) cells, clone BHK 467-12A KZ-10, stably transfected, with CRE-luciferase reporter
Method: It is thus possible to measure GLP-1 receptor activity using a CRE-luciferase reporter gene introduced into Baby Hamster Kidney (BHK) cells co-expressing the GLP-1 receptor.
Cells were aliquoted and stored at -180° C. until use.
Plates were sealed and incubated at room temperature with gentle shaking for 30 minutes while protected from light. Luminescence was detected on a luminescence plate reader e.g. a Synergy 2 (BioTek).

[2] = target: T2, human amylin receptor (hAmyR3) (Homo sapiens, UniProt O60896+P30988); test: Human amylin receptor in vitro potency assay (CRE-luciferase reporter, BHK cells); assay type: cell-based; conditions: Table 4a; BHK hAmyR3/CRE-Luc cells, 3 hours; read-out: Human AmyR3 potency [EC50 (pM)];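 also: BHK cells expressing human calcitonin receptor plus RAMP3 (amylin-3 receptor) with a CRE-luciferase reporter, agonist activity read as luminescence from cAMP-driven transcription, 7-point serial dilutions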
T2 construct: host or cells: BHK cells (Hollex-1 line: human calcitonin receptor (a) + CRE-Luc), further transfected with human RAMP3

[3] = test system: Sprague Dawley (SD) rats; test: Acute food intake in ad libitum fed rats after a single subcutaneous administration; assay type: in vivo, rat; conditions: Table 6a, rat, single administration;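 also: food intake monitored in the HM2 system, three rats per cage kept on a reversed light cycle, with food and water freely available after the subcutaneous dose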
[4] = Pharmacokinetic studies in Beagle dogs after oral administration of SNAC-based tablets; assay type: in vivo; conditions: for Tmax / half-life: male, Beagle
Method: To be able to evaluate oral exposure following tablet dosing, tablet compositions comprising the test substance and SNAC (sodium N-(8-(2-hydroxybenzoyl)amino)caprylate) were prepared by mixing test substance with roller compacted SNAC and magnesium stearate as, e.g., described in WO 2019/149880. The amount of SNAC in the tablet composition was 100-300 mg, the amount of magnesium stearate in the tablet composition was 7.7 mg, and the target amount of each test substance in the tablet composition was 3-4 mg.
Pharmacokinetic (PK) studies in Beagle dogs were conducted to determine the exposure of the GLP-1 receptor-amylin receptor co-agonist after peroral administration.
For the pharmacokinetic studies male Beagle dogs were used, 2-7, or 1 to 5, years of age and weighing approximately 10-15, such as 10-12, kg at the start of the studies. The dogs were group housed in pens (12 hours light: 12 hours dark),and fed individually and restrictedly once daily with Royal Canin Medium Adult dog (Royal Canin Products, China Branch, or Brogaarden A/S, Denmark). Exercise and group social were permitted daily, whenever possible. The dogs were used for repeated pharmacokinetic studies with a suitable wash-out period between successive dosing. An appropriate acclimatisation period was given prior to initiation of the first pharmacokinetic study. All handling, dosing and blood sampling of the animals were performed by trained and skilled staff. Before the studies the dogs were fasted overnight and from 0 to 4 h after dosing. Besides, the dogs were restricted to water 1 hour before dosing until 4 hours after dosing, but otherwise have ad libitum access to water during the whole period.
The tablets used for the p.o. studies described herein were immediate release SNAC-based tablets dosed orally.
The tablets were administered in the following manner: 10 min prior to tablet administration the dogs may be dosed subcutaneously with approximately 3 nmol/kg of SEQ ID NO: 237, tablets were placed in the back of the mouth of the dog to prevent chewing. The mouth was then closed, and 10 mL of tap water was given by a syringe or gavage to facilitate swallowing of the tablet.
Blood was sampled at predefined time points for up till 240 hours, such as up till 10 hr, post dosing to adequately cover the full plasma concentration-time absorption profile of the GLP-1 agonist.
For each blood sampling time point approximately 0.8 mL of whole blood was collected in a 1.5 mL EDTA coated tube, and the tube was gently turned to allowing mixing of the sample with the EDTA. Blood samples (for example 0.8 mL) were collected in EDTA buffer (8 mM) and then centrifuged at 4° C. and 2000 G for 10 minutes. Plasma was pipetted into Micronic tubes on dry ice, and kept at -20° C. until analysis.
Blood samples were taken as appropriate, for example from a venflon in the cephalic vein in the front leg for the first 2 hours and then with syringe from the jugular vein for the rest of the time points (the first few drops were allowed to drain from the venflon to avoid heparin saline from the venflon in the sample).
Plasma concentration of the GLP-1 receptor-amylin receptor co-agonists were determined using LCMS. Individual plasma concentration-time profiles were analysed by a non-compartmental model in WinNonlin v. 5.0 or Phoenix v. 6.2 or 6.3 (Pharsight Inc., Mountain View, CA, USA), or other relevant software for PK analysis.
The individual plasma concentration-time profiles were analysed by non-compartmental analysis (NCA).

[5] = dogs, oral administration (tablet)

T2 sequence (P30988 25-474): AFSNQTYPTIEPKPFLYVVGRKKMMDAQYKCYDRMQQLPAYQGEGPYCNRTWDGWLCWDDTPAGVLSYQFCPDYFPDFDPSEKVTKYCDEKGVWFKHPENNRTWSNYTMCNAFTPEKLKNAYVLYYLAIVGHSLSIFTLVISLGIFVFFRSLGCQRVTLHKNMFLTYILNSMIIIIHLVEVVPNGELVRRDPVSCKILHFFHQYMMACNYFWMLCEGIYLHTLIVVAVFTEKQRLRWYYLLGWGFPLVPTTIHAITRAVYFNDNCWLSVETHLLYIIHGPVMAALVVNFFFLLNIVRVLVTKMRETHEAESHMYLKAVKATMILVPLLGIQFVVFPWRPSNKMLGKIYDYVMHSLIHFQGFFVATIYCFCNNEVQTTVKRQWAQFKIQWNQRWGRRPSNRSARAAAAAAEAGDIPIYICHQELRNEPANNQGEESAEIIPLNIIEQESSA
T2 sequence (O60896 24-148): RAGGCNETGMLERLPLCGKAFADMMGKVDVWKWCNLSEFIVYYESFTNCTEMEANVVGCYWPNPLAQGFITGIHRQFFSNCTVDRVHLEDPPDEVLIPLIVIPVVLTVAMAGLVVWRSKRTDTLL
T1 sequence (P43220 24-463): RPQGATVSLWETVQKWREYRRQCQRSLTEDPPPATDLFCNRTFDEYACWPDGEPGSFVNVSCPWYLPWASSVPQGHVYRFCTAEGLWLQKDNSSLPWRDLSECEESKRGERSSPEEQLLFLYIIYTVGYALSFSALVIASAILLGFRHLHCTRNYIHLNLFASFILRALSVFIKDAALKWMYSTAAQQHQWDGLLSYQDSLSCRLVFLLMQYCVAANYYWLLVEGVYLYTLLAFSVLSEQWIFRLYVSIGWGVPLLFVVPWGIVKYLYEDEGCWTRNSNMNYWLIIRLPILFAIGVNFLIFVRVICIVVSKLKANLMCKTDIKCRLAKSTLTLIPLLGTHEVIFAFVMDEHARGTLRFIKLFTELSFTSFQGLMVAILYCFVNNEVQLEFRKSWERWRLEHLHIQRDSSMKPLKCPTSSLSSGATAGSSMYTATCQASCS

EC50 [1] [pM]	EC50 [2] [pM]	AUC/D ([4]; dog, in vivo, po) [kg·h/L]	Cmax/D ([4]; dog, in vivo, po) [kg/L]	Tmax ([4]; dog, in vivo, po, Tmax (hr)) [h]	half-life ([4]; dog, in vivo, po, T½ (hr)) [h]	AUC/D [4, 5] [kg·h/L]	Cmax/D [4, 5] [kg/L]	Tmax ([4]; dog, plasma, po, dogs, oral administration (tablet), read-out: Tmax) [h]	half-life ([4]; dog, plasma, po, dogs, oral administration (tablet), read-out: T½ (converted)) [h]	Substance	Food intake relative to vehicle (%) 0-24 hr, 10 nmol/kg [3] [%]	Food intake relative to vehicle (%) 24-48 hr, 10 nmol/kg [3] [%]
5.6	19.1	37.60	0.45	1.3	93					H-H[Aib]EGTFTSDVSK([AEEA-AEEA-γGlu-C16 diacid])YLEEQAARK([AEEA-AEEA-γGlu-C16 diacid])FIEWLVRGRGEASELSTAALGRLSAELHELATLPRTETGSGSP-NH2 [Compound 0577]		
6.4	6.2									H-H[Aib]EGTFTSDVSK([AEEA-AEEA-γGlu-C20 diacid])YLEEQAAREFIAWLVRGRGGGGGEASELSTAALGRLSAELHELATLPRTETGSGSP-NH2 [Compound 0565]	39	42
7.1	110	33.33	0.53	1.5	73					H-H[Aib]EGTFTSDVSK([Ahx-γGlu-γGlu-C16 diacid])YLEEQAARK([Ahx-γGlu-γGlu-C16 diacid])FIEWLVRGAAEASELSTAALGRLSAELHELATLPRTETGSGSP-NH2 [Compound 0630]		
6	8.1	5.68	0.16	2	16					H-H[Aib]EGTFTSDVSSYLEEK([AEEA-AEEA-γGlu-Trx-C20 diacid])AAREFIAWLVRGRGGGGEASELSTAALGRLSAELHELATLPRTETGSGSP-NH2 [Compound 0265]		
10.4	24					3.3	0.22	1	21	H-H[Aib]EGTFTSDVSSYLEEQAAREFIAWLVRGK([AEEA-AEEA-γGlu-Decanoyl(10-O(3-COOH-Ph))])K([AEEA-AEEA-γGlu-Decanoyl(10-O(3-COOH-Ph))])GGGGASELSTAALGRLSAELHELATLPRTETGSGSP-NH2 [Compound 0235]		

Continued, substance first:

Substance	EC50 [1] [pM]	EC50 [2] [pM]	AUC/D ([4]; dog, in vivo, po) [kg·h/L]	Cmax/D ([4]; dog, in vivo, po) [kg/L]	Tmax ([4]; dog, in vivo, po, Tmax (hr)) [h]	half-life ([4]; dog, in vivo, po, T½ (hr)) [h]	AUC/D [4, 5] [kg·h/L]	Cmax/D [4, 5] [kg/L]	Tmax ([4]; dog, plasma, po, dogs, oral administration (tablet), read-out: Tmax) [h]	half-life ([4]; dog, plasma, po, dogs, oral administration (tablet), read-out: T½ (converted)) [h]	Food intake relative to vehicle (%) 0-24 hr, 10 nmol/kg [3] [%]	Food intake relative to vehicle (%) 24-48 hr, 10 nmol/kg [3] [%]
Desaminohistidyl-AEGTFTSDVSSYLEEQAAREFIAWLVRGRK([AEEA-AEEA-γGlu-Trx-C20 diacid])EASELSTAALGRLSAELHELATLPRTETGSGSP-NH2 [Compound 0035]	16.7	16									76	95
H-H[Aib]EGTFTSDVSK([AEEA-AEEA-γGlu-C16 diacid])YLEEQAARK([AEEA-AEEA-γGlu-C16 diacid])FIEWLVRGRGEGGGGGASELSTAALGRLSAELHELATLPRTETGSGSP-NH2 [Compound 0576]	2.9	10.1	28.20	0.34	1.3	94						
H-H[Aib]EGTFTSDVSSYLEEK([AEEA-AEEA-γGlu-C16 diacid])AAREFIAWLVRGRGGGGGEASELSTAALGRLSAELHELATLPRTETGK([AEEA-AEEA-γGlu-C16 diacid])GSP-NH2 [Compound 0411]	3.5	45.9									81	88
H-H[Aib]EGTFTSDVSSYLEEQAAK([εLys-AEEA-AEEA-γGlu-Trx-C20 diacid])EFIEWLVRGRGEASELSTAALGRLSAELHELATLPRTETGSGSP-NH2 [Compound 0436]	15.2	12.3	15.00	0.3	1.5	35						
